Molecular target: T1, α-hSlo (BKCa channel α-subunit) (Homo sapiens, UniProt Q12791)
T1 construct: gene KCNMA1; α-hSlo expressed in HEK293T cells
Experiment: patch clamp of α-hSlo-expressing HEK293T cells (Figure S1)
Format: cell-based

T1 sequence (Q12791 whole entry): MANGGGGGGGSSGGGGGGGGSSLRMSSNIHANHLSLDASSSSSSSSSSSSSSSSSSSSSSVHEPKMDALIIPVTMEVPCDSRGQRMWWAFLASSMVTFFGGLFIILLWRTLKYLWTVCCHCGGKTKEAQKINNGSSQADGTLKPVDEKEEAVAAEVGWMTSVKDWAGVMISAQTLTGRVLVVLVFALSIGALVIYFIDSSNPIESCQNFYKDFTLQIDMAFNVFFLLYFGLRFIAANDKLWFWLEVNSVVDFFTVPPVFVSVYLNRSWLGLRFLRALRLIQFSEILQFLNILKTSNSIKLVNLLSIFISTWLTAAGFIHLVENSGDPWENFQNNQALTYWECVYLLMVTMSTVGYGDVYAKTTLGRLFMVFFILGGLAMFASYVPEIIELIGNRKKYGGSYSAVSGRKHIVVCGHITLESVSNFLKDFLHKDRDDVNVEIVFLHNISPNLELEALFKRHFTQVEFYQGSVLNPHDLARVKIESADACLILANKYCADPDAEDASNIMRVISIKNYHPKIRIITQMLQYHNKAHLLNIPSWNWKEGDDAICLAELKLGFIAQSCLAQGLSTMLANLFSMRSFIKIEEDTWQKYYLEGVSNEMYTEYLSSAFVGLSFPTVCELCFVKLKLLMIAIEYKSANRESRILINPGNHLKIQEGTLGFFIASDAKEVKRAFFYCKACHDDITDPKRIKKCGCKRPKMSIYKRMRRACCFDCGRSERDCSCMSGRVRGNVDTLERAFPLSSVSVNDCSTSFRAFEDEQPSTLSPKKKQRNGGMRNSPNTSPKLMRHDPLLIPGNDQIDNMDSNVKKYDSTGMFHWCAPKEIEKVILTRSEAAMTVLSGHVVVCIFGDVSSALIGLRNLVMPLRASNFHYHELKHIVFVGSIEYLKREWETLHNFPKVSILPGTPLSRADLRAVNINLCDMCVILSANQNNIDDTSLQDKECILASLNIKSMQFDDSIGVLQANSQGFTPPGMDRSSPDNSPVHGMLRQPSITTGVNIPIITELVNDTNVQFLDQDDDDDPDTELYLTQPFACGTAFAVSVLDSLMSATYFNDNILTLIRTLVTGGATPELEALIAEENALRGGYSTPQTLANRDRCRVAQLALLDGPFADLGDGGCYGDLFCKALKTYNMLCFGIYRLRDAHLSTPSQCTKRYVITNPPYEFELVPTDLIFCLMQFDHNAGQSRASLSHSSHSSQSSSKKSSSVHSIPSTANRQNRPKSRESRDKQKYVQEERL

SMILES: O=c1cc(CCl)nc2c(-c3cccc4ccccc34)c(C(F)(F)F)[nH]n12 [QO-40, 5-(chloromethyl)-3-(naphthalen-1-yl)-2-(trifluoromethyl)pyrazolo[1,5-a]pyrimidin-7(4H)-one]
- patch clamp of α-hSlo-expressing HEK293T cells (Figure S1): In HEK293T cells expressing α-hSlo, QO-40 stimulated BKCa channel activity.

Source: publication PMC8143083, “Effective Activation of BKCa Channels by QO-40 (5-(Chloromethyl)-3-(Naphthalen-1-yl)-2-(Trifluoromethyl)Pyrazolo [1,5-a]pyrimidin-7(4H)-one), Known to Be an Opener of KCNQ2/Q3 Channels” (Pharmaceuticals, 2021)
